Source: ChEMBL document CHEMBL1201862, “PubChem BioAssay data set” (2004)
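Tested at 5 concentrations; 48 h exposure; 96-well plates; endpoints linearly interpolated, else capped at highest concentration. GI50 marks 50% less growth.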 Active and inactive are the calls of the source. Cut-off read from the data, not from the text of the source: active = GI50 up to about 1.1 µM and inactive = higher.

Legend:
Test in all cases: NCI-60 cell line screen, 48 h
[1] = system: XF498
[2] = system: KM12
[3] = system: KM-20L2
[4] = system: SR
[5] = system: HOP-92
[6] = system: SK-OV-3
[7] = system: M19-MEL
[8] = system: DMS-114
[9] = system: MCF7
[10] = system: A498
[11] = system: NCI/ADR-RES
[12] = system: NCI-H226
[13] = system: HCT-15
[14] = system: ACHN
[15] = system: Hs-578T
[16] = system: BT-549
[17] = system: MDA-MB-231
[18] = system: MDA-MB-435
[19] = system: PC-3
[20] = system: DU-145

| Compound | GI50 [1] | GI50 [2] | GI50 [3] | GI50 [4] | GI50 [5] | GI50 [6] | GI50 [7] | GI50 [8] | GI50 [9] | GI50 [10] | GI50 [11] | GI50 [12] | GI50 [13] [µM] | GI50 [14] | GI50 [15] | GI50 [16] | GI50 [17] | GI50 [18] | GI50 [19] | GI50 [20] |
| --- | --- | --- | --- | --- | --- | --- | --- | --- | --- | --- | --- | --- | --- | --- | --- | --- | --- | --- | --- | --- |
| COc1ccccc1N1C(Cl)C(=O)C1c1c[nH]c2ccccc12 (centres undefined) | > 100 µM (inactive) | > 100 µM (inactive) | > 100 µM (inactive) | > 100 µM (inactive) | > 100 µM (inactive) | > 100 µM (inactive) | > 100 µM (inactive) | > 100 µM (inactive) |  |  |  |  |  |  |  |  |  |  |  |  |
| O=C1C(=O)c2cc([N+](=O)[O-])ccc2-c2ccc([N+](=O)[O-])cc21 | 1.23 µM (inactive) | 0.935 µM (active) | 4.88 µM (inactive) |  | 0.21 µM (active) | 2.51 µM (inactive) | 0.285 µM (active) | 0.375 µM (active) | 0.933 µM (active) | 1.9 µM (inactive) | 0.344 µM (active) | 1.51 µM (inactive) | 0.785 |  |  |  |  |  |  |  |
| COc1cc2c(c(OC)c1OC)-c1[nH]ncc1CC2 | > 100 µM (inactive) | > 100 µM (inactive) | > 100 µM (inactive) | > 100 µM (inactive) | > 100 µM (inactive) | > 100 µM (inactive) | > 100 µM (inactive) | > 100 µM (inactive) |  | > 100 µM (inactive) |  | > 100 µM (inactive) | > 100 | > 100 µM (inactive) |  |  |  |  |  |  |
| O=C(NN1C(=O)C(Cl)C1c1cccc([N+](=O)[O-])c1)c1ccccc1O (centres undefined) | > 100 µM (inactive) | > 100 µM (inactive) | > 100 µM (inactive) | > 100 µM (inactive) | > 100 µM (inactive) | > 100 µM (inactive) | > 100 µM (inactive) | > 100 µM (inactive) |  |  |  |  |  |  |  |  |  |  |  |  |
| CC1(C)C(=O)/C=C\C(=O)C(C)(C)C2=CC=C(O2)C(C)(C)C(=O)C(Br)C(Br)C(=O)C(C)(C)C2=CC=C1O2 (centres undefined) | > 67.5 µM (inactive) | 71.8 µM (inactive) | > 100 µM (inactive) | 2.12 µM (inactive) | > 21.5 µM (inactive) | > 100 µM (inactive) | 53.7 µM (inactive) | > 31.6 µM (inactive) | 33.6 µM (inactive) | > 100 µM (inactive) | 23.2 µM (inactive) | > 100 µM (inactive) | 53.1 | > 46.5 µM (inactive) | 30.1 µM (inactive) | 21.7 µM (inactive) | 27.4 µM (inactive) | 34.4 µM (inactive) | > 100 µM (inactive) | > 100 µM (inactive) |
| CCCCCCCCCCCCCCCCOCC(COP(=O)([O-])OCC[N+](C)(C)C)OCCCCCCCCCCCCCCCC (centres undefined) | > 100 µM (inactive) | > 100 µM (inactive) | > 100 µM (inactive) |  | > 100 µM (inactive) | > 100 µM (inactive) | > 100 µM (inactive) | > 100 µM (inactive) |  | > 100 µM (inactive) | > 92.9 µM (inactive) | > 100 µM (inactive) | > 100 |  |  |  |  |  |  |  |
| C=C(CCCO)[C@@H]1CC[C@@](C)(O)[C@H]1C | > 100 µM (inactive) | > 100 µM (inactive) | > 100 µM (inactive) | > 100 µM (inactive) |  | 0.885 µM (active) | > 100 µM (inactive) | > 100 µM (inactive) |  |  |  | > 100 µM (inactive) | > 100 | > 100 µM (inactive) |  |  |  |  |  |  |
| Nc1c(C(=O)Nc2ccc(C3=NCCN3)cc2)cccc1C(=O)Nc1ccc(C2=NCCN2)cc1 | > 100 µM (inactive) | > 100 µM (inactive) | > 100 µM (inactive) |  | > 100 µM (inactive) | > 100 µM (inactive) | > 100 µM (inactive) | > 100 µM (inactive) | > 100 µM (inactive) | > 100 µM (inactive) | > 100 µM (inactive) | > 100 µM (inactive) | > 100 |  |  |  |  |  |  |  |
| COc1cc(/C=C2\C(=O)N(C(=O)Cc3ccccc3)N=C2C)cc(OC)c1OC | > 100 µM (inactive) | > 100 µM (inactive) |  | > 100 µM (inactive) |  |  | > 100 µM (inactive) | > 100 µM (inactive) |  |  |  | > 100 µM (inactive) | > 100 | > 100 µM (inactive) |  |  |  |  |  |  |
| CC(=O)Nc1ccc(C2=N/C(=C\c3ccc(Cl)c(Cl)c3)C(=O)O2)cc1 | 57.5 µM (inactive) | > 100 µM (inactive) | > 100 µM (inactive) | 68.9 µM (inactive) | 68.9 µM (inactive) | > 100 µM (inactive) | 82.6 µM (inactive) | > 100 µM (inactive) |  | > 100 µM (inactive) |  | > 100 µM (inactive) | > 100 | > 100 µM (inactive) |  |  |  |  |  |  |
| Cn1c(=O)nc2n(-c3ccc(Cl)cc3Cl)c3ccccc3nc-2c1=O | 0.262 µM (active) | 3.96 µM (inactive) | 0.861 µM (active) | 19.2 µM (inactive) | 7.21 µM (inactive) | 30.8 µM (inactive) | 1.02 µM (active) | 1.94 µM (inactive) |  |  |  |  | 3.05 |  |  |  |  |  |  |  |
| C=C1CC(OC)(C(O)C(=O)N[C@H]2OCO[C@H]3C2O[C@H](C[C@@H](CO)OC)C(C)(C)C3OC)O[C@H](C)[C@@H]1C (some centres undefined) | < 0.00931 µM (active) | < 0.00931 µM (active) | < 0.00931 µM (active) |  | < 0.00931 µM (active) | < 0.00931 µM (active) | < 0.00931 µM (active) | < 0.00931 µM (active) | < 0.00931 µM (active) | < 0.00931 µM (active) | < 0.00931 µM (active) | < 0.00931 µM (active) | < 0.00931 |  |  |  |  |  |  |  |
| O=C1C=CC2(O[C@@H](Cc3ccccc3)[C@H](Cc3ccccc3)O2)C(SC(=O)c2ccccc2)C1 (some centres undefined) |  | 2.31 µM (inactive) |  | 0.138 µM (active) | 1.54 µM (inactive) | 2.75 µM (inactive) |  |  | 0.568 µM (active) | 4.93 µM (inactive) | 1.07 µM (active) | 1.52 µM (inactive) | 0.298 | 0.929 µM (active) | 1.38 µM (inactive) | 0.34 µM (active) | 2.52 µM (inactive) | 2.11 µM (inactive) | 1.53 µM (inactive) | 2.39 µM (inactive) |
| O=C(/C=C/CC(O)(c1ccccc1)c1ccccc1)Nc1ccccc1Cl |  | > 100 µM (inactive) | > 100 µM (inactive) | > 100 µM (inactive) | > 100 µM (inactive) | > 100 µM (inactive) | > 100 µM (inactive) | > 100 µM (inactive) |  | > 100 µM (inactive) |  | > 100 µM (inactive) | > 100 | > 100 µM (inactive) |  |  |  |  |  |  |
| CCN(CC)c1c(C)c(C(=O)OC)nn1-c1ccccc1 | > 34.5 µM (inactive) | > 85.3 µM (inactive) | > 100 µM (inactive) |  | 71 µM (inactive) | > 100 µM (inactive) | > 66.2 µM (inactive) | 38.7 µM (inactive) | 80.4 µM (inactive) | > 85.1 µM (inactive) | 36.4 µM (inactive) | > 77.1 µM (inactive) | > 100 |  |  |  |  |  |  |  |
| c1ccc(CN2CCC3(CC2)SSC2(CCN(Cc4ccccc4)CC2)SS3)cc1 |  | > 100 µM (inactive) |  | 83.2 µM (inactive) | > 100 µM (inactive) | > 100 µM (inactive) |  |  | > 100 µM (inactive) | > 100 µM (inactive) | > 100 µM (inactive) | > 100 µM (inactive) | > 100 | > 100 µM (inactive) | > 100 µM (inactive) | > 100 µM (inactive) | > 100 µM (inactive) | > 100 µM (inactive) | > 100 µM (inactive) | > 100 µM (inactive) |
